Results published in PubChem BioAssay AID1361 (SRMLSC, 2008).
Calls of active or inactive are those of the source. The rule behind the calls is not given here.

Assay: mitochondrial fusion inhibitors, confirmation, cell-based, chemical genetic, wild-type and mutant (AID 1361)
Settings: Cell-based mitochondrial fusion phenotype, imaging
[1] = mutant cells, measured here: mutant cell line IC50

| Compound | IC50 (WT cells) | IC50 [1] |
| --- | --- | --- |
| CCCCN1C(=O)NC(=O)C2(Cc3c(nc4c(C)cccn4c3=O)N3CCc4ccccc4C32)C1=O (centres undefined) | 11.9 µM | > 25 µM |
| CN1CCC2(CC1)Nc1nc(SCc3ccc(Cl)cc3)nn1C1=C2CN(C)CC1 | > 25 µM (inactive) | > 25 µM |
| O=C(CNC(=S)N(Cc1ccccc1)Cc1ccccc1F)NCc1ccc(Cl)cc1 | 5.67 µM | > 25 µM |
| Cc1ccc2c(c1)c1c(n2CC(O)Cn2nc(C)c(Br)c2C)CCCC1 (centres undefined) | 12.3 µM | 22.8 µM |
| CCOc1ccc(-c2nc(N)ncc2Oc2ccccc2Br)c(O)c1 | > 25 µM (inactive) | > 25 µM |
| Fc1ccc(C(CCCn2nnc(-c3cccnc3)n2)c2ccc(F)cc2)cc1 | 21.9 µM | > 25 µM |
| Cc1ccc(CNCC(O)(c2ccccc2)c2ccc(F)cc2)cc1 (centres undefined) | > 25 µM (inactive) | > 25 µM |
| Cc1ccc(C)c(N2CCN(C(=O)C3CCCCN3S(=O)(=O)c3ccc(F)cc3)CC2)c1 (centres undefined) | 18.3 µM | > 25 µM |
| O=C(NCc1ccccc1)c1ccc(-c2ccccc2C(F)(F)F)o1 | > 25 µM (inactive) | > 25 µM |
| CCOC(=O)C(C)c1nc2ccccc2[nH]c1=O (centres undefined) | > 25 µM (inactive) | > 25 µM |
| CCOC(=O)C1=C(CC)Nc2ccccc2N/C1=N\S(=O)(=O)c1ccc2ccccc2c1 | 11 µM | > 25 µM |
| Clc1cccc(N=C2NN=C(c3ccc4c(c3)OCCO4)CS2)c1 | 15.9 µM | > 25 µM |
| CN(c1cccc(NC(=O)Nc2ccc(Cl)cc2)c1)S(C)(=O)=O | > 25 µM (inactive) | > 25 µM |
| CCn1c(O)c(C(c2ccccn2)c2c(O)n(CC)c(=S)[nH]c2=O)c(=O)[nH]c1=S | > 25 µM (inactive) | > 25 µM |
| COC(=O)CN(c1ccc2c(c1)OCCO2)S(=O)(=O)c1ccccc1 | > 25 µM (inactive) | > 25 µM |
| CN(CC(=O)O/N=C(\N)c1cccc([N+](=O)[O-])c1)S(=O)(=O)c1ccccc1 | > 25 µM (inactive) | > 25 µM |
| O=C(CSc1ncn[nH]1)NCc1ccccc1 | > 25 µM (inactive) | > 25 µM |
| Cc1nn(C(C)(C)C)c(OC(=O)c2ccc3c(c2)OCO3)c1Sc1ccccc1 | 8.28 µM | > 25 µM |
| CCCCC(=O)NC(=S)Nc1ccccc1N1CCCCC1 | 19.8 µM | > 25 µM |
| O=C(c1ccccn1)N1N=C2/C(=C/c3ccc(F)cc3)CCCC2C1c1ccc(F)cc1 (centres undefined) | 16.1 µM | > 25 µM |
| Clc1cncc(Cl)c1NNc1c2ccccc2nc2ccccc12 | > 25 µM (inactive) | > 25 µM |

| Compound | IC50 (WT cells) | IC50 [1] |
| --- | --- | --- |
| Cc1csc(NC(=O)c2cccn2C)n1 | > 25 µM (inactive) | > 25 µM |
| COc1ccc(C2CC(c3ccc(Br)cc3)=NN2C(=O)c2cccnc2)cc1 (centres undefined) | 18.2 µM | > 25 µM |
| CCOC(=O)c1c(NS(=O)(=O)c2ccc(Br)cc2)sc2c1CCC2 | 12.6 µM | > 25 µM |
| Cc1ccc(NC(=O)C2(c3ccccc3)CC2(Cl)Cl)cc1C (centres undefined) | > 25 µM (inactive) | > 25 µM |
| COc1cccc(-c2cnc(OC(C)(C)C)nc2OC(C)(C)C)c1 | 24 µM | > 25 µM |
| Cc1ccc2c(N)c(C#N)sc2n1 | > 25 µM (inactive) | > 25 µM |
| CCOC(=O)c1c(NC(=O)CN2CCN(C(=O)c3ccco3)CC2)sc2c1CCCC2 | 23.2 µM | > 25 µM |
| CCOC(=O)C1CCc2nc3ccccc3c(=O)n21 (centres undefined) | > 25 µM (inactive) | > 25 µM |
| Cc1cc(C)nc(Nc2ncc(O)n2-c2ccccc2)n1 | > 25 µM (inactive) | > 25 µM |
| Cc1cc(Nc2ccccc2)c2c([N+](=O)[O-])cc(C)c(C)c2n1 | > 25 µM (inactive) | > 25 µM |
| O=C(COc1ccccc1-c1ccccc1)NCc1cccc(Cl)c1 | 15 µM | > 25 µM |
| COCCNC(=O)CC(NS(=O)(=O)c1ccc(C)cc1)c1ccco1 (centres undefined) | > 25 µM (inactive) | > 25 µM |
| CCOC(=O)C1=C(Nc2ccccc2)CC(C)(O)C(C(=O)OCC)C1c1ccc(Cl)cc1 (centres undefined) | 15.6 µM | > 25 µM |
| CC(C)CNS(=O)(=O)c1ccc(S(=O)(=O)N2CCCN(Cc3ccccc3)C2)cc1 | > 25 µM (inactive) | > 25 µM |
| CCN(CC)c1ccc(/C=N/NC(=S)NCc2ccco2)cc1 | 11.6 µM | > 25 µM |
| CCOc1cccc(Oc2ncccc2C(=O)/C(C#N)=C/N(C)C)c1 | > 25 µM (inactive) | > 25 µM |
| FC(F)(F)c1cnc(N2CCC(=NOCc3ccc(Cl)cc3)CC2)c(Cl)c1 | 13.7 µM | > 25 µM |
| Cc1ccc(Nc2nc(N)nc(CSc3nc4ccccc4s3)n2)cc1 | 14.2 µM | 17 µM |
| Cc1ccc(-n2cc(C(=O)c3ccc(F)cc3)nn2)cc1Cl | > 25 µM (inactive) | > 25 µM |
| COCCn1c(SCc2nnc(-c3ccccc3)o2)nc2sc3c(c2c1=O)CCC3 | 8.38 µM | 17.6 µM |
| CS(=O)(=O)N1CCc2cc(C(=O)N3CCOCC3)ccc21 | > 25 µM (inactive) | > 25 µM |

| Compound | IC50 (WT cells) | IC50 [1] |
| --- | --- | --- |
| CCN(CC)C(=O)C1CC(=O)N(c2ccc(F)c(Cl)c2)C1 (centres undefined) | > 25 µM (inactive) | > 25 µM |
| CCCOP(=O)(OCCC)C(Nc1ccc(C(C)C)cc1)c1ccc([N+](=O)[O-])cc1 (centres undefined) | 13.1 µM | > 25 µM |
| CC(C)Cc1nc(N2CCN(C(=O)c3ccccc3)CC2)c(C#N)c2c1CCC2 | 16.3 µM | > 25 µM |
| Cc1ccc(N(CC(O)Cn2c3ccccc3c3ccccc32)S(C)(=O)=O)c(C)c1 (centres undefined) | 18.8 µM | > 25 µM |
| S=c1[nH]nc(-c2cc3ccccc3o2)n1Cc1ccccc1 | 12.5 µM | 23.1 µM |
| COCCNC(=O)c1cccc(Nc2nc(-c3ccccc3)c3cc(Cl)ccc3n2)c1 | 19.4 µM | > 25 µM |
| Cc1ccc(C)c(C(=O)COC(=O)c2cc([N+](=O)[O-])ccc2NCCO)c1 | 25 µM (inactive) | > 12.5 µM |
| Cc1cc2ncn(/N=C/c3cccnc3)c2cc1C | > 25 µM (inactive) | > 25 µM |
| COc1ccc(-c2[nH]c(-c3cc(OC)c4c(c3)OCO4)nc2-c2ccccc2)cc1 | 12.6 µM | > 25 µM |
| CCCCN(CCCC)C1=Nc2ccccc2N/C1=C(/C#N)C(=O)OCC | 6.94 µM | > 25 µM |
| CCCCSc1nnc(CNC(=O)C23CC4CC(CC(C4)C2)C3)n1Cc1ccccc1 | > 25 µM (inactive) | > 25 µM |
| O/N=C(\c1ccc(Cl)cc1Cl)c1ncc(C(F)(F)F)cc1Cl | 20.9 µM | > 25 µM |
| Cc1cc(C(=O)CSc2nnc(-c3ccc(Cl)cc3)n2CC2CCCO2)c(C)n1C (centres undefined) | > 25 µM (inactive) | > 25 µM |
| COC(=O)C1=C(C)N(C(C)c2ccccc2)C(=O)/C1=C\c1ccco1 (centres undefined) | 24.2 µM | > 25 µM |
| Cc1ccc2c(c1)C1CN(C)CCC1N2C(=O)c1cn(-c2ccccc2)nc1-c1ccccc1 (centres undefined) | 23.6 µM | > 25 µM |
| Cc1[nH][nH]c(=O)c1C(c1c(C)[nH][nH]c1=O)c1cn(Cc2ccc(Cl)c(Cl)c2)c2ccccc12 | 5.68 µM | > 25 µM |
| COc1ccc(NC(=S)NCCC(c2ccccc2)c2ccccc2)c(OC)c1 | 7.67 µM | > 25 µM |
| O=C(Nc1ccccc1N1CCOCC1)c1cccc(F)c1 | 9.3 µM | 21.6 µM |
| CC(=O)Nc1ccc(S(=O)(=O)N2CCSC2c2ccc(Cl)cc2)cc1 (centres undefined) | > 25 µM (inactive) | > 25 µM |
| Cc1cc2c3c(c1)C1(SCC(=O)N1c1ccc(F)cc1)C(=O)N3C(C)(C)CC2C (centres undefined) | > 25 µM (inactive) | > 25 µM |
| CCC(=Nc1ccc(OC)cc1OC)c1c(O)n(C2CCCCC2)c(=O)[nH]c1=O | 15.9 µM | > 25 µM |

| Compound | IC50 (WT cells) | IC50 [1] |
| --- | --- | --- |
| Cc1cc(NC(=S)N(Cc2ccc(Cl)cc2)Cc2ccc(C(=O)O)cc2)ccc1Cl | 17.6 µM | > 25 µM |
| CCOC(=O)c1c(N)sc(C(O)(C(F)(F)F)C(F)(F)F)c1-c1ccccc1 | 20.3 µM | > 25 µM |
| CN(C)C(=O)CSc1nnc(CCCCCNC(=O)OC(C)(C)C)o1 | > 25 µM (inactive) | > 25 µM |
| O=[N+]([O-])c1cc(C(F)(F)F)ccc1NCCc1c[nH]c2ccccc12 | 13.4 µM | 18.9 µM |
| CCN(CC)c1ccc(NC(=O)Nc2ccccc2C(F)(F)F)cc1 | > 25 µM (inactive) | > 25 µM |
| Cc1cccc(N2CCN(C(=O)c3ccc(Cl)c(S(=O)(=O)NCc4ccco4)c3)CC2)c1C | > 25 µM (inactive) | > 25 µM |
| CCOc1ccc2c(c1)C(C)=CC(C)(C)N2S(=O)(=O)c1ccc(C)cc1 | 13.7 µM | 23.2 µM |
| Cc1ccc(-n2cccc2C(=S)N=P(N(C)C)(N(C)C)N(C)C)cc1 | 9.32 µM | > 25 µM |
| COC(=O)c1ccc(-c2sc3nc(N4CCOCC4)c4c(c3c2N)CCCC4)o1 | > 25 µM (inactive) | > 25 µM |
| O=c1c2ccccc2n(Cc2ccc(F)cc2)c(=O)n1C1CCCC1 | 17 µM | > 25 µM |
| Cc1cc(Oc2cnn(C(C)(C)C)c(=O)c2Cl)cc(C(C)C)c1 | 16.9 µM | > 25 µM |
| c1n[nH]c(NCc2ccc3c(c2)OCO3)n1 | > 25 µM (inactive) | > 25 µM |
| COc1ccccc1Cn1c(/C=C/c2ccccc2)nc2ccccc21 | 9.02 µM (inactive) | 8.43 µM |
| Cc1oc(-c2ccccc2Cl)nc1CN1C(=O)CN=C(c2ccccc2)c2ccccc21 | 20.5 µM | > 25 µM |
| Cc1nc(N2CCCCC2C)c2c(C)c(C(=O)Nc3cccc(C(F)(F)F)c3)sc2n1 (centres undefined) | 10.6 µM | > 25 µM |
| CCCOc1ccc(-c2nc(C#N)c(N3CCC(C(N)=O)CC3)o2)cc1 | > 25 µM (inactive) | > 25 µM |
| Cc1cc(C)nc(N2CCC(C(=O)NCCc3ccc(F)cc3)CC2)n1 | > 25 µM (inactive) | > 25 µM |
| O=C(Nc1ccc2c(c1)nc1n2CCN(Cc2ccccc2)C1)c1cccs1 | > 25 µM (inactive) | > 25 µM |
| FC(F)(F)c1cnc(Sc2nc3nccc(-c4ccc(Cl)cc4)n3n2)c(Cl)c1 | > 25 µM (inactive) | > 25 µM |
